Data as given in PubChem BioAssay AID2060513 (Molecular Pharmacology Branch, DTP, NCI, 2025).

System: 299254-011-R-J1-PDC complex spheroids viability
Experiment: Anticancer human tumor 299254-011-R-J1-PDC patient-derived melanoma cell line growth inhibition [GQUAD]
Settings: for IC50: curve of first compound; for viability, T/C: stronger effect = lower value; active = viability on the fitted dose curve at most 10% of control; inactive = the rest
Outline: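 Tumor cells were grown as complex spheroids with HUVEC endothelial cells and mesenchymal stem cells as stroma. G-quadruplex stabilizers were combined with targeted agents over half-log dilutions from near the clinical Cmax, or from 10 microM.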

[1] = second compound 0.0316 µM, first compound 0.0316 µM
[2] = second compound 0.0316 µM, first compound 0.1 µM
[3] = second compound 0.0316 µM, first compound 0.316 µM
[4] = second compound 0.0316 µM, first compound 1 µM
[5] = second compound 0.0316 µM, first compound 3.16 µM
[6] = second compound 0.0316 µM, first compound 10 µM
[7] = second compound 0.1 µM, first compound 0.0316 µM
[8] = second compound 0.1 µM, first compound 0.1 µM
[9] = second compound 0.1 µM, first compound 0.316 µM
[10] = second compound 0.1 µM, first compound 1 µM
[11] = second compound 0.1 µM, first compound 3.16 µM
[12] = second compound 0.1 µM, first compound 10 µM
[13] = second compound 0.316 µM, first compound 0.0316 µM
[14] = second compound 0.316 µM, first compound 0.1 µM
[15] = second compound 0.316 µM, first compound 0.316 µM
[16] = second compound 0.316 µM, first compound 1 µM
[17] = second compound 0.316 µM, first compound 3.16 µM
[18] = second compound 0.316 µM, first compound 10 µM
[19] = second compound 1 µM, first compound 0.0316 µM
[20] = second compound 1 µM, first compound 0.1 µM
[21] = second compound 1 µM, first compound 0.316 µM
[22] = second compound 1 µM, first compound 1 µM
[23] = second compound 1 µM, first compound 3.16 µM
[24] = second compound 1 µM, first compound 10 µM
[25] = second compound 3.16 µM, first compound 0.0316 µM
[26] = second compound 3.16 µM, first compound 0.1 µM
[27] = second compound 3.16 µM, first compound 0.316 µM
[28] = second compound 3.16 µM, first compound 1 µM
[29] = second compound 3.16 µM, first compound 3.16 µM
[30] = second compound 3.16 µM, first compound 10 µM
[31] = second compound 10 µM, first compound 0.0316 µM
[32] = second compound 10 µM, first compound 0.1 µM
[33] = second compound 10 µM, first compound 0.316 µM
[34] = second compound 10 µM, first compound 1 µM
[35] = second compound 10 µM, first compound 3.16 µM
[36] = second compound 10 µM, first compound 10 µM
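Also: spheroids exposed to the agents for seven days before readout.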
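For viability, T/C in this document: percent viability relative to DMSO vehicle control wells = 100%.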

COc1ccc([C@@H](O)c2cc(-c3ncnc4cc(N5CCOCC5)ccc34)c(F)cc2Cl)nn1 + Cc1[nH]c2ccc(F)cc2c1-c1nc2c3cccnc3c3ncccc3c2[nH]1
7.15 µM: IC50 (second compound 10 µM)
8.51 µM: IC50 (second compound 0.316 µM)
inactive: viability, T/C [1] 97.4% | viability, T/C [2] 113% | viability, T/C [3] 108% | viability, T/C [4] 84.6% | viability, T/C [5] 83.8% | viability, T/C [6] 57.7% | viability, T/C [7] 92% | viability, T/C [8] 97.3% | viability, T/C [9] 109% | viability, T/C [10] 86.9% | viability, T/C [11] 77.6% | viability, T/C [12] 51% | viability, T/C [13] 82.2% | viability, T/C [14] 108% | viability, T/C [15] 107% | viability, T/C [16] 83.4% | viability, T/C [17] 111% | viability, T/C [18] 42.1% | viability, T/C [19] 85.3% | viability, T/C [20] 92.5% | viability, T/C [21] 106% | viability, T/C [22] 98.9% | viability, T/C [23] 75.9% | viability, T/C [24] 47.6% | viability, T/C [25] 96.3% | viability, T/C [26] 120% | viability, T/C [27] 87.8% | viability, T/C [28] 95% | viability, T/C [29] 97.1% | viability, T/C [30] 44.6% | viability, T/C [31] 121% | viability, T/C [32] 93.3% | viability, T/C [33] 100% | viability, T/C [34] 93.9% | viability, T/C [35] 82.8% | viability, T/C [36] 36.9%
> 10 µM: IC50 (second compound 0.0316 µM) | IC50 (second compound 0.1 µM)
9.05 µM: IC50 (second compound 1 µM)
8.89 µM: IC50 (second compound 3.16 µM)

O=C(NO)c1cnc(N2CCN(S(=O)(=O)c3ccc4ccccc4c3)CC2)nc1 + Cc1cnc(CNC(=O)c2c(=O)c3ccc(N4CCCN(C)CC4)nc3n3c2sc2ccccc23)cn1
0.201 µM: IC50 (second compound 0.0316 µM)
0.227 µM: IC50 (second compound 0.1 µM)
inactive: viability, T/C [1] 112% | viability, T/C [2] 94.8% | viability, T/C [3] 20.9% | viability, T/C [7] 107% | viability, T/C [8] 97.8% | viability, T/C [9] 30.7% | viability, T/C [13] 102% | viability, T/C [14] 109% | viability, T/C [15] 27.9% | viability, T/C [19] 93.6% | viability, T/C [20] 83% | viability, T/C [21] 31.8% | viability, T/C [25] 74.8% | viability, T/C [26] 91.3% | viability, T/C [27] 32.3% | viability, T/C [31] 45.8% | viability, T/C [32] 11.5%
active: viability, T/C [4] 0.93% | viability, T/C [5] 0.18% | viability, T/C [6] 0.19% | viability, T/C [10] 1.22% | viability, T/C [11] 0.15% | viability, T/C [12] 0.24% | viability, T/C [16] 0.56% | viability, T/C [17] 0.14% | viability, T/C [18] 0.21% | viability, T/C [22] 1.83% | viability, T/C [23] 0.13% | viability, T/C [24] 0.18% | viability, T/C [28] 0.19% | viability, T/C [29] 0.15% | viability, T/C [30] 0.16% | viability, T/C [33] 0.31% | viability, T/C [34] 0.22% | viability, T/C [35] 0.22% | viability, T/C [36] 0.23%
0.228 µM: IC50 (second compound 0.316 µM)
< 0.0316 µM: IC50 (second compound 10 µM)
0.21 µM: IC50 (second compound 1 µM)
0.212 µM: IC50 (second compound 3.16 µM)

COc1ncnc(C2CC2)c1-c1ncc2cnn(Cc3ccc(-c4nc(C(F)(F)F)cn4C(C)C)cc3)c2n1 + Cc1cnc(CNC(=O)c2c(=O)c3ccc(N4CCCN(C)CC4)nc3n3c2sc2ccccc23)cn1
> 10 µM: IC50 (second compound 0.0316 µM) | IC50 (second compound 0.1 µM) | IC50 (second compound 0.316 µM) | IC50 (second compound 1 µM) | IC50 (second compound 3.16 µM)
inactive: viability, T/C [1] 92.3% | viability, T/C [2] 98.2% | viability, T/C [3] 84.8% | viability, T/C [4] 88.6% | viability, T/C [5] 110% | viability, T/C [6] 126% | viability, T/C [7] 113% | viability, T/C [8] 97.9% | viability, T/C [9] 81.5% | viability, T/C [10] 97.8% | viability, T/C [11] 91.9% | viability, T/C [12] 108% | viability, T/C [13] 87.3% | viability, T/C [14] 88.9% | viability, T/C [15] 120% | viability, T/C [16] 101% | viability, T/C [17] 93.2% | viability, T/C [18] 97.8% | viability, T/C [19] 68.7% | viability, T/C [20] 102% | viability, T/C [21] 90.1% | viability, T/C [22] 88.1% | viability, T/C [23] 102% | viability, T/C [24] 76.8% | viability, T/C [25] 87.4% | viability, T/C [26] 69.8% | viability, T/C [27] 76.4% | viability, T/C [28] 70.9% | viability, T/C [29] 77.3% | viability, T/C [30] 79% | viability, T/C [31] 38.5% | viability, T/C [32] 24.7% | viability, T/C [33] 68% | viability, T/C [34] 77.7% | viability, T/C [35] 63.6%
active: viability, T/C [36] 0.43%
3.44 µM: IC50 (second compound 10 µM)
